Results published in PubChem BioAssay AID192 (DTP/NCI, 2004).
“And” between values parts separate entries of the source, which are not always exact repeats. Equal entries are not always repeated. Inconclusive results and toxic doses are left out. The calls were made as follows: active = survival T/C of 150% or more; inactive = T/C below 125% in these data.

System: BDF1 mice, B16 melanoma ip, median survival T/C
Assay: NCI In Vivo Anticancer Drug Screen. Data for tumor model B16 Melanoma (intraperitoneal) in B6D2F1 (BDF1) mice
Conditions: endpoint: median survival time, higher = longer survival
Method in brief: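 Each result divides a survival or tumor-size measurement in the compound-treated group by the same measurement in the vehicle group.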

[1] = dose: 12.5 mg/kg/injection, schedule: Q01DX009 (ip), vehicle: Klucel (hydroxypropylcellulose) (HPC)
[2] = dose: 25.0 mg/kg/injection, schedule: Q01DX009 (ip), vehicle: Klucel (hydroxypropylcellulose) (HPC)
[3] = dose: 50.0 mg/kg/injection, schedule: Q01DX009 (ip), vehicle: Klucel (hydroxypropylcellulose) (HPC)
[4] = dose: 100.0 mg/kg/injection, schedule: Q01DX009 (ip), vehicle: Klucel (hydroxypropylcellulose) (HPC)
[5] = dose: 200.0 mg/kg/injection, schedule: Q01DX009 (ip), vehicle: Klucel (hydroxypropylcellulose) (HPC)
[6] = dose: 100.0 mg/kg/injection, schedule: Q01DX009 (ip), vehicle: saline with Tween-80
[7] = dose: 200.0 mg/kg/injection, schedule: Q01DX009 (ip), vehicle: saline with Tween-80
[8] = dose: 400.0 mg/kg/injection, schedule: Q01DX009 (ip), vehicle: saline with Tween-80
[9] = dose: 15.0 mg/kg/injection, schedule: Q01DX009 (ip), vehicle: saline
[10] = dose: 30.0 mg/kg/injection, schedule: Q01DX009 (ip), vehicle: saline

Measured: T/C

C[C@H](N)C(=O)N[C@@H]1[C@H]2C(=C(O)C[C@@H](O)[C@@H]2O)C(=O)O[C@@H]1C
inactive: dose: 150.0 mg/kg/injection, schedule: Q01DX009 (ip), vehicle: saline 100 % of control | dose: 300.0 mg/kg/injection, schedule: Q01DX009 (ip), vehicle: saline 102 % of control | dose: 600.0 mg/kg/injection, schedule: Q01DX009 (ip), vehicle: saline 106 % of control | dose: 1200.0 mg/kg/injection, schedule: Q01DX009 (ip), vehicle: saline 116 % of control

COc1cccc(CNc2cccc(Cl)c2Cl)c1OC
inactive: [1] 99 % of control | [2] 105 % of control | [3] 101 % of control | [4] 101 % of control | [5] 95 % of control | dose: 400.0 mg/kg/injection, schedule: Q01DX009 (ip), vehicle: Klucel (hydroxypropylcellulose) (HPC) 102 % of control

Cc1cc(C(=O)NNCc2ccccc2)no1
inactive: dose: 3.12 mg/kg/injection, schedule: Q01DX009 (ip), vehicle: Klucel (hydroxypropylcellulose) (HPC) 88 % of control and 98 % of control | dose: 6.25 mg/kg/injection, schedule: Q01DX009 (ip), vehicle: Klucel (hydroxypropylcellulose) (HPC) 88 % of control and 98 % of control | [1] 99 % of control | [2] 90 % of control and 92 % of control and 102 % of control | [3] 90 % of control

CC1OC(Oc2c(-c3cc(O)c(O)c(O)c3)oc3cc(O)cc(O)c3c2=O)C(O)C(O)C1O (stereo unspecified)
inactive: [6] 112 % of control | [7] 113 % of control | [8] 90 % of control

COc1ccc2c(NCCCCCCCCNc3c4ccccc4nc4cc(OC)ccc34)c3ccccc3nc2c1
inactive: dose: 3.75 mg/kg/injection, schedule: Q01DX009 (ip), vehicle: distilled water + alcohol 95 % of control

O=c1oc2ccccc2c(O)c1C(c1ccc(C(c2c(O)c3ccccc3oc2=O)c2c(O)c3ccccc3oc2=O)cc1)c1c(O)c2ccccc2oc1=O
inactive: [3] 103 % of control | [4] 100 % of control | [5] 93 % of control

[Cl][Pt+2][Cl].[NH-]c1ccc(C(=O)c2ccccc2)cc1[NH-]
inactive: dose: 20.0 mg/kg/injection, schedule: Q01DX009 (ip), vehicle: saline with Tween-80 108 % of control | dose: 40.0 mg/kg/injection, schedule: Q01DX009 (ip), vehicle: saline with Tween-80 113 % of control | dose: 80.0 mg/kg/injection, schedule: Q01DX009 (ip), vehicle: saline with Tween-80 118 % of control | dose: 160.0 mg/kg/injection, schedule: Q01DX009 (ip), vehicle: saline with Tween-80 114 % of control | dose: 320.0 mg/kg/injection, schedule: Q01DX009 (ip), vehicle: saline with Tween-80 113 % of control

CNCCOC(c1ccccc1)c1ccccc1C (stereo unspecified)
inactive: dose: 3.12 mg/kg/injection, schedule: Q01DX009 (ip), vehicle: saline 97 % of control | dose: 6.25 mg/kg/injection, schedule: Q01DX009 (ip), vehicle: saline 97 % of control | dose: 12.5 mg/kg/injection, schedule: Q01DX009 (ip), vehicle: saline 102 % of control | dose: 25.0 mg/kg/injection, schedule: Q01DX009 (ip), vehicle: saline 100 % of control | dose: 50.0 mg/kg/injection, schedule: Q01DX009 (ip), vehicle: saline 104 % of control

Nc1ncnc2c1ccn2C1OC2COP(=O)(O)OC2C1O (stereo unspecified)
inactive: dose: 1.0 mg/kg/injection, schedule: Q01DX009 (ip), vehicle: saline 116 % of control | dose: 4.0 mg/kg/injection, schedule: Q01DX009 (ip), vehicle: saline 111 % of control

NC1=C(N2CC2)C(=O)C(N)=C(N2CC2)C1=O
inactive: dose: 6.0 micrograms/kg/injection, schedule: Q01DX009 (ip), vehicle: saline 112 % of control | dose: 12.5 micrograms/kg/injection, schedule: Q01DX009 (ip), vehicle: saline 112 % of control | dose: 25.0 micrograms/kg/injection, schedule: Q01DX009 (ip), vehicle: saline 105 % of control | dose: 50.0 micrograms/kg/injection, schedule: Q01DX009 (ip), vehicle: saline 120 % of control | dose: 200.0 micrograms/kg/injection, schedule: Q01DX009 (ip), vehicle: saline 124 % of control

COCCNCCN1CCN(CCCN2c3ccccc3Sc3ccc(C(F)(F)F)cc32)CC1
inactive: dose: 3.75 mg/kg/injection, schedule: Q01DX009 (ip), vehicle: saline 109 % of control | dose: 7.5 mg/kg/injection, schedule: Q01DX009 (ip), vehicle: saline 107 % of control | [9] 111 % of control | [10] 88 % of control

O/N=C\c1ccc(/C=N/O)cc1
inactive: dose: 50.0 mg/kg/injection, schedule: Q04DX003 (ip), vehicle: saline with Tween-80 119 % of control | dose: 100.0 mg/kg/injection, schedule: Q04DX003 (ip), vehicle: saline with Tween-80 119 % of control | dose: 200.0 mg/kg/injection, schedule: Q04DX003 (ip), vehicle: saline with Tween-80 111 % of control

c1ccc2cc3c(cc2c1)Cn1c-3nc2ccccc21
inactive: dose: 178.0 mg/kg/injection, schedule: Q01DX009 (ip), vehicle: saline with Tween-80 101 % of control | dose: 200.0 mg/kg/injection, schedule: Q01DX009 (ip), vehicle: saline 124 % of control | dose: 266.0 mg/kg/injection, schedule: Q01DX009 (ip), vehicle: saline with Tween-80 100 % of control | [8] 90 % of control | dose: 400.0 mg/kg/injection, schedule: Q01DX009 (ip), vehicle: saline 110 % of control

O=C(NP(=O)(N1CC1)N1CC1)c1cc(I)ccc1I
inactive: dose: 1.0 mg/kg/injection, schedule: Q02DX009 (ip), vehicle: saline with Tween-80 100 % of control | dose: 1.0 mg/kg/injection, schedule: Q02DX009 (ip), vehicle: saline 104 % of control | dose: 2.0 mg/kg/injection, schedule: Q02DX009 (ip), vehicle: saline with Tween-80 106 % of control | dose: 2.0 mg/kg/injection, schedule: Q02DX009 (ip), vehicle: saline 107 % of control | dose: 4.0 mg/kg/injection, schedule: Q02DX009 (ip), vehicle: saline with Tween-80 93 % of control | dose: 4.0 mg/kg/injection, schedule: Q02DX009 (ip), vehicle: saline 98 % of control | dose: 8.0 mg/kg/injection, schedule: Q02DX009 (ip), vehicle: saline with Tween-80 120 % of control | dose: 8.0 mg/kg/injection, schedule: Q02DX009 (ip), vehicle: saline 112 % of control | dose: 16.0 mg/kg/injection, schedule: Q02DX009 (ip), vehicle: saline 116 % of control | dose: 32.0 mg/kg/injection, schedule: Q02DX009 (ip), vehicle: saline 107 % of control | dose: 64.0 mg/kg/injection, schedule: Q02DX009 (ip), vehicle: saline with Tween-80 92 % of control | dose: 64.0 mg/kg/injection, schedule: Q02DX009 (ip), vehicle: saline 101 % of control

CC1=C2C(=O)c3ccccc3C2=C(C)S(=O)(=O)O1
inactive: dose: 50.0 mg/kg/injection, schedule: Q01DX009 (ip), vehicle: carboxymethylcellulose (CMC) 99 % of control | dose: 100.0 mg/kg/injection, schedule: Q01DX009 (ip), vehicle: carboxymethylcellulose (CMC) 87 % of control

CC(C)(C)C1CCC(C(=O)O)CC1 (stereo unspecified)
inactive: dose: 50.0 mg/kg/injection, schedule: Q01DX009 (ip), vehicle: saline with Tween-80 95 % of control | [6] 90 % of control | [7] 90 % of control

CC(C)(C)OC(=O)C(CC(=O)O)NC(=O)OCc1ccccc1 (stereo unspecified) (tested in a mixture with another compound)
inactive: [9] 107 % of control | [10] 102 % of control | dose: 60.0 mg/kg/injection, schedule: Q01DX009 (ip), vehicle: saline 108 % of control

CCC(=O)[O][Bi]([c]1ccccc1)[c]1ccccc1
inactive: dose: 3.0 mg/kg/injection, schedule: Q01DX009 (ip), vehicle: Klucel (hydroxypropylcellulose) (HPC) 90 % of control | dose: 6.0 mg/kg/injection, schedule: Q01DX009 (ip), vehicle: Klucel (hydroxypropylcellulose) (HPC) 99 % of control | dose: 12.0 mg/kg/injection, schedule: Q01DX009 (ip), vehicle: Klucel (hydroxypropylcellulose) (HPC) 94 % of control | dose: 24.0 mg/kg/injection, schedule: Q01DX009 (ip), vehicle: Klucel (hydroxypropylcellulose) (HPC) 91 % of control

CCN(C(=O)Nc1ccccc1)c1ccccc1C
inactive: dose: 6.25 mg/kg/injection, schedule: Q01DX009 (ip), vehicle: saline with Tween-80 100 % of control | dose: 12.5 mg/kg/injection, schedule: Q01DX009 (ip), vehicle: saline with Tween-80 88 % of control | dose: 25.0 mg/kg/injection, schedule: Q01DX009 (ip), vehicle: saline with Tween-80 94 % of control

COc1ccc(NC(=O)Nc2ccccc2OC)cc1
inactive: [6] 102 % of control | [7] 115 % of control | [8] 101 % of control
